In PubChem BioAssay AID248 (DTP/NCI, 2004):
Several values for one entry are separate records, joined by “and”; a condition that tells them apart may be missing. Equal values may be shown once. Toxic doses and inconclusive results are not listed.

Tested on: L1210 leukemia ip in BDF1 mice, survival T/C
Assay: NCI In Vivo Anticancer Drug Screen. Data for tumor model L1210 Leukemia (intraperitoneal) in B6D2F1 (BDF1) mice
Conditions: higher = longer survival
How it was run: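 Ratio derived from survival: compound-dosed mice over vehicle-dosed mice, all bearing a transplantable tumor.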

[1] = endpoint: mean survival time, dose: 4.0 mg/kg/injection, schedule: Q01DX009 (ip), vehicle: other
[2] = endpoint: mean survival time, dose: 100.0 mg/kg/injection, schedule: Q01DX001 (ip), vehicle: saline
[3] = endpoint: mean survival time, dose: 200.0 mg/kg/injection, schedule: Q01DX001 (ip), vehicle: saline
[4] = endpoint: mean survival time, dose: 400.0 mg/kg/injection, schedule: Q01DX001 (ip), vehicle: saline
[5] = endpoint: mean survival time, dose: 25.0 mg/kg/injection, schedule: Q01DX001 (ip), vehicle: Klucel (hydroxypropylcellulose) (HPC)
[6] = endpoint: mean survival time, dose: 50.0 mg/kg/injection, schedule: Q01DX001 (ip), vehicle: Klucel (hydroxypropylcellulose) (HPC)
[7] = endpoint: mean survival time, dose: 100.0 mg/kg/injection, schedule: Q01DX001 (ip), vehicle: Klucel (hydroxypropylcellulose) (HPC)
[8] = endpoint: mean survival time, dose: 100.0 mg/kg/injection, schedule: Q01DX009 (ip), vehicle: Klucel (hydroxypropylcellulose) (HPC)
[9] = endpoint: mean survival time, dose: 100.0 mg/kg/injection, schedule: Q04DX003 (ip), vehicle: Klucel (hydroxypropylcellulose) (HPC)
[10] = endpoint: mean survival time, dose: 200.0 mg/kg/injection, schedule: Q01DX009 (ip), vehicle: Klucel (hydroxypropylcellulose) (HPC)
[11] = endpoint: mean survival time, dose: 200.0 mg/kg/injection, schedule: Q04DX003 (ip), vehicle: Klucel (hydroxypropylcellulose) (HPC)
[12] = endpoint: mean survival time, dose: 400.0 mg/kg/injection, schedule: Q04DX003 (ip), vehicle: Klucel (hydroxypropylcellulose) (HPC)

SMILES: O=NN(CCCl)C(=O)Nc1ccc2c(c1)OCO2
- T/C [1]: 155 % of control
- T/C (endpoint: mean survival time, dose: 6.0 mg/kg/injection, schedule: Q01DX009 (ip), vehicle: other): 163 % of control
- T/C (endpoint: mean survival time, dose: 9.0 mg/kg/injection, schedule: Q01DX009 (ip), vehicle: other): 170 % of control
- T/C (endpoint: mean survival time, dose: 13.0 mg/kg/injection, schedule: Q01DX009 (ip), vehicle: other): 173 % of control
- T/C (endpoint: mean survival time, dose: 20.0 mg/kg/injection, schedule: Q01DX001 (ip), vehicle: other): 180 % of control
- T/C (endpoint: mean survival time, dose: 20.0 mg/kg/injection, schedule: Q01DX009 (ip), vehicle: other): 164 % of control
- T/C (endpoint: mean survival time, dose: 22.0 mg/kg/injection, schedule: Q01DX009 (ip), vehicle: carboxymethylcellulose (CMC)): 157 % of control
- T/C (endpoint: mean survival time, dose: 30.0 mg/kg/injection, schedule: Q01DX001 (ip), vehicle: other): 170 % of control
- T/C (endpoint: mean survival time, dose: 30.0 mg/kg/injection, schedule: Q01DX009 (ip), vehicle: other): 166 % of control and 185 % of control
- T/C (endpoint: mean survival time, dose: 44.0 mg/kg/injection, schedule: Q01DX009 (ip), vehicle: other): 104 % of control
- T/C (endpoint: mean survival time, dose: 66.0 mg/kg/injection, schedule: Q01DX001 (ip), vehicle: other): 226 % of control
- T/C (endpoint: mean survival time, dose: 88.0 mg/kg/injection, schedule: Q01DX001 (ip), vehicle: saline): 151 % of control
- T/C (endpoint: mean survival time, dose: 100.0 mg/kg/injection, schedule: Q01DX001 (ip), vehicle: carboxymethylcellulose (CMC)): 151 % of control
- T/C (endpoint: mean survival time, dose: 200.0 mg/kg/injection, schedule: Q01DX001 (ip), vehicle: carboxymethylcellulose (CMC)): 160 % of control

SMILES: Cc1ccc(S(=N)(=O)C2CC2)cc1 (stereo unspecified)
- T/C [2]: 95 % of control
- T/C [3]: 93 % of control
- T/C [4]: 103 % of control

SMILES: OCc1ncn[nH]1
- T/C [2]: 102 % of control
- T/C [3]: 95 % of control
- T/C [4]: 107 % of control

SMILES: Nc1cncnc1
- T/C (endpoint: mean survival time, dose: 50.0 mg/kg/injection, schedule: Q01DX001 (ip), vehicle: saline): 112 % of control
- T/C [2]: 107 % of control
- T/C [3]: 98 % of control
- T/C [4]: 102 % of control

SMILES: O=[N+]([O-])c1cc(Br)c(Br)cc1N1CCCC1
- T/C (endpoint: mean survival time, dose: 100.0 mg/kg/injection, schedule: Q04DX003 (ip), vehicle: saline): 98 % of control
- T/C (endpoint: mean survival time, dose: 200.0 mg/kg/injection, schedule: Q04DX003 (ip), vehicle: saline): 88 % of control
- T/C (endpoint: mean survival time, dose: 400.0 mg/kg/injection, schedule: Q04DX003 (ip), vehicle: saline): 86 % of control

SMILES: CCCCCCC[CH2][Sn]1([CH2]CCCCCCC)[O]OC(c2ccccc2)[O]1 (stereo unspecified)
- T/C (endpoint: mean survival time, dose: 6.25 mg/kg/injection, schedule: Q04DX002 (ip), vehicle: saline with Tween-80): 102 % of control
- T/C (endpoint: mean survival time, dose: 12.5 mg/kg/injection, schedule: Q04DX002 (ip), vehicle: saline with Tween-80): 98 % of control
- T/C (endpoint: mean survival time, dose: 25.0 mg/kg/injection, schedule: Q04DX002 (ip), vehicle: saline with Tween-80): 91 % of control

SMILES: C=CCN1C(=O)C(c2ccccc2)C2(CCN(C)CC2)C1=O (stereo unspecified)
- T/C [5]: 108 % of control
- T/C [6]: 108 % of control
- T/C [7]: 98 % of control and 104 % of control

SMILES: COC1OC2COC(c3ccccc3)OC2C2C1N2C#N (stereo unspecified)
- T/C [5]: 100 % of control
- T/C [6]: 93 % of control
- T/C [7]: 100 % of control

SMILES: CN1CCN(C(=S)Nc2ccccc2)CC1
- T/C [5]: 98 % of control
- T/C [6]: 106 % of control
- T/C [7]: 97 % of control and 107 % of control

SMILES: O=C/C(=C/c1ccccc1)c1ccccc1
- T/C [8]: 98 % of control
- T/C [9]: 107 % of control
- T/C [10]: 101 % of control
- T/C [11]: 98 % of control
- T/C (endpoint: mean survival time, dose: 400.0 mg/kg/injection, schedule: Q01DX009 (ip), vehicle: Klucel (hydroxypropylcellulose) (HPC)): 95 % of control
- T/C [12]: 102 % of control

SMILES: Cc1ccc(C)c(NC(=O)Nc2ccccc2C)c1
- T/C [8]: 88 % of control
- T/C [9]: 86 % of control
- T/C [10]: 101 % of control and 90 % of control
- T/C [11]: 89 % of control
- T/C [12]: 89 % of control

SMILES: O=C1CC(=O)N(c2ccccc2)O1
- T/C (endpoint: mean survival time, dose: 100.0 mg/kg/injection, schedule: Q04DX003 (ip), vehicle: saline with Tween-80): 92 % of control
- T/C (endpoint: mean survival time, dose: 200.0 mg/kg/injection, schedule: Q04DX003 (ip), vehicle: saline with Tween-80): 112 % of control
- T/C (endpoint: mean survival time, dose: 400.0 mg/kg/injection, schedule: Q04DX003 (ip), vehicle: saline with Tween-80): 91 % of control

SMILES: Cc1cnc(-n2nc(-c3ccccc3)c3c2-c2ccccc2C3)nc1-c1ccccc1O
- T/C (endpoint: mean survival time, dose: 6.25 mg/kg/injection, schedule: Q01DX009 (ip), vehicle: Klucel (hydroxypropylcellulose) (HPC)): 91 % of control
- T/C (endpoint: mean survival time, dose: 12.5 mg/kg/injection, schedule: Q01DX009 (ip), vehicle: Klucel (hydroxypropylcellulose) (HPC)): 87 % of control

SMILES: O=C(O)C(O)C(=O)O.[NH2-].[NH2-].[Pt+2]
- T/C (endpoint: mean survival time, dose: 1.0 mg/kg/injection, schedule: Q01DX001 (ip), vehicle: other): 94 % of control
- T/C (endpoint: mean survival time, dose: 2.0 mg/kg/injection, schedule: Q01DX001 (ip), vehicle: other): 95 % of control
- T/C (endpoint: mean survival time, dose: 2.0 mg/kg/injection, schedule: Q01DX009 (ip), vehicle: other): 101 % of control
- T/C (endpoint: mean survival time, dose: 4.0 mg/kg/injection, schedule: Q01DX001 (ip), vehicle: other): 98 % of control
- T/C [1]: 101 % of control
- T/C (endpoint: mean survival time, dose: 8.0 mg/kg/injection, schedule: Q01DX001 (ip), vehicle: other): 98 % of control
- T/C (endpoint: mean survival time, dose: 8.0 mg/kg/injection, schedule: Q01DX009 (ip), vehicle: other): 101 % of control
- T/C (endpoint: mean survival time, dose: 16.0 mg/kg/injection, schedule: Q01DX001 (ip), vehicle: other): 101 % of control
- T/C (endpoint: mean survival time, dose: 25.0 mg/kg/injection, schedule: Q04DX003 (ip), vehicle: saline): 112 % of control
- T/C (endpoint: mean survival time, dose: 32.0 mg/kg/injection, schedule: Q01DX001 (ip), vehicle: other): 109 % of control
- T/C (endpoint: mean survival time, dose: 32.0 mg/kg/injection, schedule: Q01DX009 (ip), vehicle: other): 187 % of control
- T/C (endpoint: mean survival time, dose: 40.0 mg/kg/injection, schedule: Q01DX001 (ip), vehicle: other): 122 % of control
- T/C (endpoint: mean survival time, dose: 60.0 mg/kg/injection, schedule: Q01DX001 (ip), vehicle: other): 158 % of control
- T/C (endpoint: mean survival time, dose: 80.0 mg/kg/injection, schedule: Q01DX001 (ip), vehicle: other): 168 % of control
- T/C (endpoint: mean survival time, dose: 100.0 mg/kg/injection, schedule: Q01DX001 (ip), vehicle: other): 114 % of control
- T/C (endpoint: mean survival time, dose: 128.0 mg/kg/injection, schedule: Q01DX001 (ip), vehicle: other): 121 % of control

SMILES: C=C1CC(OC(C)=O)C2C(C)C(=O)OC2C2C1CC1OC12C (stereo unspecified)
- T/C (endpoint: mean survival time, dose: 100.0 mg/kg/injection, schedule: Q04DX002 (ip), vehicle: saline): 92 % of control
- T/C (endpoint: mean survival time, dose: 200.0 mg/kg/injection, schedule: Q04DX002 (ip), vehicle: saline): 92 % of control

SMILES: Cc1nc2nc(N)nc(N)c2nc1CNc1ccc(C(=O)NC(CCC(=O)O)C(=O)O)cc1 (stereo unspecified)
- T/C (endpoint: median survival time, dose: 0.39 mg/kg/injection, schedule: Q01DX009 (ip), vehicle: other): 100 % of control
- T/C (endpoint: median survival time, dose: 0.65 mg/kg/injection, schedule: Q01DX009 (ip), vehicle: other): 100 % of control
- T/C (endpoint: median survival time, dose: 1.08 mg/kg/injection, schedule: Q01DX009 (ip), vehicle: other): 100 % of control
- T/C (endpoint: median survival time, dose: 1.8 mg/kg/injection, schedule: Q01DX009 (ip), vehicle: other): 100 % of control
- T/C (endpoint: median survival time, dose: 5.0 mg/kg/injection, schedule: Q01DX009 (ip), vehicle: other): 100 % of control
- T/C (endpoint: median survival time, dose: 14.0 mg/kg/injection, schedule: Q01DX009 (ip), vehicle: other): 110 % of control
- T/C (endpoint: median survival time, dose: 108.0 mg/kg/injection, schedule: Q01DX009 (ip), vehicle: other): 100 % of control
- T/C (endpoint: median survival time, dose: 180.0 mg/kg/injection, schedule: Q01DX009 (ip), vehicle: other): 105 % of control
- T/C (endpoint: median survival time, dose: 300.0 mg/kg/injection, schedule: Q01DX009 (ip), vehicle: other): 105 % of control

SMILES: C#CCn1cnc2c(Cl)ncnc21
- T/C [2]: 117 % of control
- T/C [3]: 97 % of control
- T/C [4]: 103 % of control

SMILES: O=C(O)C(Cc1cccs1)Cc1cccs1
- T/C (endpoint: mean survival time, dose: 50.0 mg/kg/injection, schedule: Q04DX003 (ip), vehicle: carboxymethylcellulose (CMC)): 120 % of control
- T/C (endpoint: mean survival time, dose: 100.0 mg/kg/injection, schedule: Q04DX003 (ip), vehicle: carboxymethylcellulose (CMC)): 104 % of control
- T/C (endpoint: mean survival time, dose: 200.0 mg/kg/injection, schedule: Q04DX003 (ip), vehicle: carboxymethylcellulose (CMC)): 108 % of control

SMILES: CCC(CO)NC1CCCC1 (stereo unspecified)
- T/C (endpoint: mean survival time, dose: 75.0 mg/kg/injection, schedule: Q01DX001 (ip), vehicle: acid diluted with saline): 100 % of control
- T/C (endpoint: mean survival time, dose: 150.0 mg/kg/injection, schedule: Q01DX001 (ip), vehicle: acid diluted with saline): 100 % of control
- T/C (endpoint: mean survival time, dose: 300.0 mg/kg/injection, schedule: Q01DX001 (ip), vehicle: acid diluted with saline): 100 % of control
